Patent publication US9834549B2, “3,3-disubstituted-(8-aza-bicyclo[3.2.1]OCT-8-yl)-[5-(1H-pyrazol-4-yl)-thiophen-3-yl]-methanones as inhibitors of 11 (β)-HSD1” (The University Of Edinburgh, priority 2010, dated 2017)
Where two headings read alike, the source gives them in different places.

How the values were obtained:
[1] = molecular target: T1, human 11β-HSD2 (Homo sapiens, UniProt P80365); assay: Cellular in vitro 11β-HSD2 enzyme inhibition assay (CHO cells); format: cell-based; details: CHO cells transfected with human 11β-HSD2
T1 construct: CHO cells stably transfected with the full-length gene coding for human 11β-HSD2 were used; expressed in transfected cells; host or cells: CHO (stably transfected)
T1 sequence (P80365 1-405): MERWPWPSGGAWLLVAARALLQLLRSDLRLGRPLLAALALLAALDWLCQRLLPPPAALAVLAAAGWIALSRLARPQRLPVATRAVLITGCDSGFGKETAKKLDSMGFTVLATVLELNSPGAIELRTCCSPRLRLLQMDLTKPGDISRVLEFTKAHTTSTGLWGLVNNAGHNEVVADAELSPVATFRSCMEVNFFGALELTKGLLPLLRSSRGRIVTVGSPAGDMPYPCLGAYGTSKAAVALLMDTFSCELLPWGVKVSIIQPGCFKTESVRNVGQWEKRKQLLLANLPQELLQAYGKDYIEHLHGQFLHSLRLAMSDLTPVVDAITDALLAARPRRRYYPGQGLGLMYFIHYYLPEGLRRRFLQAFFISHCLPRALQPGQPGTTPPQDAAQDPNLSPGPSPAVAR
Description: For measurement of inhibition of 11β-HSD2, CHO cells stably transfected with the full-length gene coding for human 11β-HSD2 were used. Assays were carried out in 96-well microplates containing 1×10^5 cells/well. Controls and compounds were plated as above, so that the final DMSO concentration in each well was 1%. To initiate the assay, 90 μL of a solution of HAMS F-12 medium containing 1% glutamine, 1% penicillin and streptomycin, and 22 nM tritiated cortisol was added to each well of the assay plate. The plate was then incubated in 5% CO2, 95% O2 at 37° C. for 16 hours.
The assay solutions were transferred to glass tubes and […] added to each tube. Each tube was vortexed thoroughly and the upper layer containing the tritiated steroid transferred to a fresh glass tube. The solvent was evaporated by placing the tubes in a heating block at 65° C. under a stream of nitrogen gas. 20 μL ethanol was added to each of the dried samples and vortexed briefly. Each sample was applied to a silica TLC plate and the plate dried. The plate was placed vertically in a glass tank containing 92% chloroform: 8% ethanol and the solvent allowed to rise up the plate. The plate was dried, placed in an imaging cassette, and overlayed with a tritium imaging plate for 1-2 days. The amount of enzyme inhibition in each sample was determined by measuring the intensity of the substrate and product spots using a phospho-imager. IC50 values for inhibitors were determined as described above for 11β-HSD1.

[2] = molecular target: T2, human 11β-HSD1 (Homo sapiens, UniProt P28845); assay: Cellular in vitro 11β-HSD1 enzyme inhibition assay (SPA, HEK293/11β-HSD1 cells); format: cell-based; details: read-out: IC50 for 11β-HSD1 (HEK293)
T2 construct: stably transfected with a construct containing the full-length gene coding for the human 11β-HSD1 enzyme; expressed in transfected cells; host or cells: HEK293 (stably transfected, HEK293/11β-HSD1)
T2 sequence (P28845 whole entry): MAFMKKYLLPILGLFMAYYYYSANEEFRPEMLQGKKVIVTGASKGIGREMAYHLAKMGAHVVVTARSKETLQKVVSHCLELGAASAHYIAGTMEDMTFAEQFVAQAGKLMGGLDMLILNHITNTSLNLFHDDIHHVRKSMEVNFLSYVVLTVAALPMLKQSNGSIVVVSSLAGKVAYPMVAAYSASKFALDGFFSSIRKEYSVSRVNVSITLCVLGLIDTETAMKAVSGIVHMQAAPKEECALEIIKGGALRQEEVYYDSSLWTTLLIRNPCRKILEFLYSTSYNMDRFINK
Description: Compounds were assessed by a Scintillation Proximity Assay (SPA) performed according to the following protocol:
HEK293 cells were stably transfected with a construct containing the full-length gene coding for the human 11β-HSD1 enzyme to create HEK293/11β-HSD1 cells. Cells were routinely cultured in DMEM containing 10% calf foetal serum, 1% glutamine, and 1% penicillin and streptomycin. Prior to assay, cells were plated at 2×10^4 cells/well in 96-well poly-D-Lys coated flat-bottomed microplates and incubated in 5% CO2, 95% O2 at 37° C. for 24 hours. The media in each well was removed immediately before assay.
Compounds to be tested were dissolved in DMSO at 10 mM and serially diluted into water containing 10% DMSO. Diluted compounds at a volume of 10 μL were added to wells of a 96-well V-bottomed microplate. A solution of DMEM, 1% glutamine, 1% penicillin and streptomycin, and 22 nM tritiated cortisone was prepared and 90 μL added to each well of the assay plate. This solution (100 μL/well) was transferred to the plate containing the cells. The plate was then incubated in 5% CO2, 95% O2 at 37° C. for 2 hours.
Following this incubation, 50 μL of the assay solution was transferred to each well of a 96-well scintillation microplate. A mixture consisting of anti-mouse YSi SPA beads, pre-mixed with anti-cortisol antibody in assay buffer (50 mM Tris.HCl, pH 7.0; 300 mM NaCl; 1 mM EDTA, 5% glycerol) was prepared and 50 μL added to each well of the scintillation microplate. An adhesive strip was applied to the microplate and the plate gently shaken for at least 2 hours at room temperature, and then spun briefly on a low speed centrifuge. The plate was read on a scintillation counter suitable for 96-well microplates. For the calculation of percentage inhibition, a series of wells were added to the plate that represented the assay maximum and the assay minimum: one set that contained substrate without cells (minimum) and another set that contained substrate and cells without any compound (maximum).
The calculation of median inhibitory concentration (IC50) values for the compounds was performed using GraphPad Prism® software. Dose-response curves for each compound were plotted as fractional inhibition and data fitted to the four parameter logistic equation.

[3] = In vitro human liver microsomal stability assay; format: in vitro ADME; details: human liver microsomes
Description: To predict in vivo metabolism of compounds, the stability of compounds incubated with human liver microsomes in vitro was determined. Human liver microsome preparations were stored at −80° C. and thawed on ice prior to use. The thawed microsomes were diluted to a concentration of 2 mg/mL in 50 mM sodium phosphate, pH 7.4. Reference and test compounds were prepared as 10 mM stocks in 100% DMSO and diluted to 1 mM in acetonitrile before use. Each compound was tested in triplicate as follows:
4 μL of test or reference compound was added to a well of a 24-well microplate and 0.5 mL of 4 mM NADPH added. The plate was then transferred to a shaker for 10 minutes at room temperature. 30 μL of the compound/NADPH solution was transferred to the well of a 96-well microplate and incubated at 37° C. for 5 minutes. 30 μL of human liver microsomes (pre-incubated at 37° C. for 5 minutes) was added to the well containing the compound/NADPH solution and the plate incubated for the selected period of time (typically 0 or 30 minutes). The reaction was stopped by adding 60 μL of ice cold […] trichloroacetic acid. The plate was centrifuged at 1000 rpm for 5 minutes at room temperature and the supernatant transferred to the well of a new 96-well V-bottomed microplate for mass spectrometric analysis.
Samples were analyzed by TSQ Quantum Discovery Tandem Mass Spectrometer and Surveyor Liquid Chromatogram (Thermo, Hemel-Hempstead, UK). 10 μL of each sample was injected in a mobile phase consisting of 60%:40% methanol:5 mM ammonium acetate at a flow rate of 0.5 mL/minute. The column used was a BDS hypersil, C18, 50×2.1 mm with a 5 μm particle size.
Each compound was tuned with a spray voltage of 3000 V and a capillary temperature of 300° C. and values for tube lens, CID and product ions were determined.
The peak area for each compound was measured in triplicate for the 0 and 30 minute samples and the average of each was reported. The percentage remaining after 30 minutes was calculated as the average peak area of the sample after 30 minutes divided by the average peak area at 0 minutes. The RSD was 10% or lower for each compound.

[4] = HEK293 cells transfected with human 11β-HSD1, first value in cell

Row | Compound | IC50 ([2]; HEK293, potency groups) [µM] | further results
1 | Cc1cccnc1C1(F)CC2CCC(C1)N2C(=O)c1csc(-c2cn[nH]c2)c1 (single isomer, unassigned) [XX-16, [3-Fluoro-3-(3-methyl-pyridin-2-yl)-8-aza-bicyclo[3.2.1]oct-8-yl]-[5-(1H-pyrazol-4-yl)-thiophen-3-yl]-methanone] | ≤ 0.1 | IC50 [1]: > 10000 nM; IC50 [2, 4]: 0.009 µM
2 | O=C(c1csc(-c2cn[nH]c2)c1)N1C2CCC1CC(F)(c1nccs1)C2 (single isomer, unassigned) [XX-34, (3-Fluoro-3-thiazol-2-yl-8-aza-bicyclo[3.2.1]oct-8-yl)-[5-(1H-pyrazol-4-yl)-thiophen-3-yl]-methanone] | 0.1 to 0.5 | 
3 | O=C(c1csc(-c2cn[nH]c2)c1)N1C2CCC1CC(O)(c1ncccc1F)C2 (centres unmarked) [XX-02] |  | IC50 ([2]; HEK293, potency groups, μM): 0.5 to 10 µM
4 | O=C(c1csc(-c2cn[nH]c2)c1)N1C2CCC1CC(O)(c1ncccc1Cl)C2 (centres unmarked) [XX-03] | ≤ 0.1 | IC50 [1]: > 10000 nM; IC50 [2, 4]: 0.012 µM
5 | O=C(c1csc(-c2cn[nH]c2)c1)N1C2CCC1CC(O)(c1ccncc1Cl)C2 (centres unmarked) [XX-04] | ≤ 0.1 | 
6 | COc1cccc(C2(O)CC3CCC(C2)N3C(=O)c2csc(-c3cn[nH]c3)c2)n1 (centres unmarked) [XX-05] | ≤ 0.1 | 
7 | COc1cccnc1C1(O)CC2CCC(C1)N2C(=O)c1csc(-c2cn[nH]c2)c1 (centres unmarked) [XX-06] | ≤ 0.1 | 
8 | Cc1cccnc1C1(O)CC2CCC(C1)N2C(=O)c1csc(-c2cn[nH]c2)c1 (centres unmarked) [XX-07] | ≤ 0.1 | IC50 [1]: > 10000 nM; IC50 [2, 4]: 0.003 µM
9 | CN(C)c1cccc(C2(O)CC3CCC(C2)N3C(=O)c2csc(-c3cn[nH]c3)c2)n1 (centres unmarked) [XX-08] | ≤ 0.1 | 
10 | O=C(c1csc(-c2cn[nH]c2)c1)N1C2CCC1CC(O)(c1ncccc1C(F)(F)F)C2 (centres unmarked) [XX-09] | ≤ 0.1 | 
11 | COC1(c2ccccn2)CC2CCC(C1)N2C(=O)c1csc(-c2cn[nH]c2)c1 (centres unmarked) [XX-10] | ≤ 0.1 | 
12 | COC1(c2ncccc2C)CC2CCC(C1)N2C(=O)c1csc(-c2cn[nH]c2)c1 (centres unmarked) [XX-11] | ≤ 0.1 | 
13 | CCOC1(c2ccccn2)CC2CCC(C1)N2C(=O)c1csc(-c2cn[nH]c2)c1 (centres unmarked) [XX-12] | ≤ 0.1 | 
14 | O=C(c1csc(-c2cn[nH]c2)c1)N1C2CCC1CC(F)(c1ccccn1)C2 (centres unmarked) [XX-14] | ≤ 0.1 | 
15 | Cc1cccnc1C1(C#N)CC2CCC(C1)N2C(=O)c1csc(-c2cn[nH]c2)c1 (centres unmarked) [XX-19] | ≤ 0.1 | 
16 | O=C(c1csc(-c2cn[nH]c2)c1)N1C2CCC1CC(O)(c1ccncn1)C2 (centres unmarked) [XX-21] |  | IC50 ([2]; HEK293, potency groups, μM): 0.5 to 10 µM
17 | O=C(c1csc(-c2cn[nH]c2)c1)N1C2CCC1CC(O)(c1cncnc1)C2 (centres unmarked) [XX-22] |  | IC50 ([2]; HEK293, potency groups, μM): 0.5 to 10 µM
18 | O=C(c1csc(-c2cn[nH]c2)c1)N1C2CCC1CC(O)(c1ncncc1Cl)C2 (centres unmarked) [XX-23] | ≤ 0.1 | 
19 | Cc1nccnc1C1(O)CC2CCC(C1)N2C(=O)c1csc(-c2cn[nH]c2)c1 (centres unmarked) [XX-25] | 0.1 to 0.5 | 
20 | N#CC1(c2ncccn2)CC2CCC(C1)N2C(=O)c1csc(-c2cn[nH]c2)c1 (centres unmarked) [XX-26] | ≤ 0.1 | 

Row | Compound | IC50 ([2]; HEK293, potency groups) [µM] | further results
21 | O=C(c1csc(-c2cn[nH]c2)c1)N1C2CCC1CC(O)(c1cccnn1)C2 (centres unmarked) [XX-27] | ≤ 0.1 | % Parent Remaining at 30 min [3]: +++ (61-100% +++)
22 | O=C(c1csc(-c2cn[nH]c2)c1)N1C2CCC1CC(O)(c1cccnn1)C2 (centres unmarked) [XX-28] |  | IC50 ([2]; HEK293, potency groups, μM): 0.5 to 10 µM
23 | Cc1csc(C2(O)CC3CCC(C2)N3C(=O)c2csc(-c3cn[nH]c3)c2)n1 (centres unmarked) [XX-30] | 0.1 to 0.5 | 
24 | Cc1cnc(C2(O)CC3CCC(C2)N3C(=O)c2csc(-c3cn[nH]c3)c2)s1 (centres unmarked) [XX-32] | ≤ 0.1 | 
25 | N#CC1(c2nccs2)CC2CCC(C1)N2C(=O)c1csc(-c2cn[nH]c2)c1 (centres unmarked) [XX-35] | ≤ 0.1 | % Parent Remaining at 30 min [3]: ++ (31-60% ++)
26 | O=C(c1csc(-c2cn[nH]c2)c1)N1C2CCC1CC(O)(c1ncco1)C2 (centres unmarked) [XX-37] | ≤ 0.1 | % Parent Remaining at 30 min [3]: +++ (61-100% +++)
27 | Cn1ccnc1C1(O)CC2CCC(C1)N2C(=O)c1csc(-c2cn[nH]c2)c1 (centres unmarked) [XX-38] |  | IC50 ([2]; HEK293, potency groups, μM): 0.5 to 10 µM
28 | Cn1nccc1C1(O)CC2CCC(C1)N2C(=O)c1csc(-c2cn[nH]c2)c1 (centres unmarked) [XX-39] | 0.1 to 0.5 | 
29 | O=C(c1csc(-c2cn[nH]c2)c1)N1C2CCC1CC(O)(c1nc3ccccc3s1)C2 (centres unmarked) [XX-40] | 0.1 to 0.5 | 
30 | O=C(c1csc(-c2cn[nH]c2)c1)N1C2CCC1CC(F)(c1ncccc1F)C2 (centres unmarked) [XX-41] | ≤ 0.1 | 
31 | O=C(c1csc(-c2cn[nH]c2)c1)N1CCC(O)(c2ccccn2)CC1 [YY-01] |  | IC50 ([2]; HEK293, potency groups, μM): 0.5 to 10 µM
32 | O=C(c1csc(-c2cn[nH]c2)c1)N1CCC(O)(c2ncc(Cl)cc2Cl)CC1 [YY-03] | 0.1 to 0.5 | 
33 | O=C(c1csc(-c2cn[nH]c2)c1)N1CCC(O)(c2ncccc2C(F)(F)F)CC1 [YY-04] | 0.1 to 0.5 | 
34 | CCc1ccc(Cl)c(C2(O)CCN(C(=O)c3csc(-c4cn[nH]c4)c3)CC2)n1 [YY-05] | 0.1 to 0.5 | 
35 | O=C(c1csc(-c2cn[nH]c2)c1)N1CCC(O)(c2ccncc2F)CC1 [YY-07] | 0.1 to 0.5 | % Parent Remaining at 30 min [3]: +++ (61-100% +++)
36 | O=C(c1csc(-c2cn[nH]c2)c1)N1CCC(O)(c2ncccc2F)CC1 [YY-08] |  | IC50 ([2]; HEK293, potency groups, μM): 0.5 to 10 µM
37 | O=C(c1csc(-c2cn[nH]c2)c1)N1CCC(F)(c2ncccc2Cl)CC1 [YY-09] | 0.1 to 0.5 | % Parent Remaining at 30 min [3]: +++ (61-100% +++)
38 | O=C(c1csc(-c2cn[nH]c2)c1)N1CCC(O)(c2ncccn2)CC1 [YY-10] |  | IC50 ([2]; HEK293, potency groups, μM): 0.5 to 10 µM
39 | O=C(c1csc(-c2cn[nH]c2)c1)N1CCC(F)(c2ncccn2)CC1 [YY-11] |  | IC50 ([2]; HEK293, potency groups, μM): 0.5 to 10 µM
